Each block holds one compound with its values, some of them ahead of it.
Tested on: 885512-296-R-J2-PDC complex spheroid viability
Assay: Anticancer human tumor 885512-296-R-J2-PDC patient-derived breast carcinoma cell line growth inhibition [GQUAD]
Details: for IC50: curve of first compound; for viability, T/C: stronger effect = lower value
Summary of the method: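 Tumor cells were grown as complex spheroids with HUVEC endothelial cells and mesenchymal stem cells as stroma. G-quadruplex stabilizers were combined with targeted agents over half-log dilutions from near the clinical Cmax, or from 10 microM.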

[1] = second compound 0.0316 µM, first compound 0.0316 µM
[2] = second compound 0.0316 µM, first compound 0.1 µM
[3] = second compound 0.0316 µM, first compound 0.316 µM
[4] = second compound 0.0316 µM, first compound 1 µM
[5] = second compound 0.0316 µM, first compound 3.16 µM
[6] = second compound 0.0316 µM, first compound 10 µM
[7] = second compound 0.1 µM, first compound 0.0316 µM
[8] = second compound 0.1 µM, first compound 0.1 µM
[9] = second compound 0.1 µM, first compound 0.316 µM
[10] = second compound 0.1 µM, first compound 1 µM
[11] = second compound 0.1 µM, first compound 3.16 µM
[12] = second compound 0.1 µM, first compound 10 µM
[13] = second compound 0.316 µM, first compound 0.0316 µM
[14] = second compound 0.316 µM, first compound 0.1 µM
[15] = second compound 0.316 µM, first compound 0.316 µM
[16] = second compound 0.316 µM, first compound 1 µM
[17] = second compound 0.316 µM, first compound 3.16 µM
[18] = second compound 0.316 µM, first compound 10 µM
[19] = second compound 1 µM, first compound 0.0316 µM
[20] = second compound 1 µM, first compound 0.1 µM
[21] = second compound 1 µM, first compound 0.316 µM
[22] = second compound 1 µM, first compound 1 µM
[23] = second compound 1 µM, first compound 3.16 µM
[24] = second compound 1 µM, first compound 10 µM
[25] = second compound 3.16 µM, first compound 0.0316 µM
[26] = second compound 3.16 µM, first compound 0.1 µM
[27] = second compound 3.16 µM, first compound 0.316 µM
[28] = second compound 3.16 µM, first compound 1 µM
[29] = second compound 3.16 µM, first compound 3.16 µM
[30] = second compound 3.16 µM, first compound 10 µM
[31] = second compound 10 µM, first compound 0.0316 µM
[32] = second compound 10 µM, first compound 0.1 µM
[33] = second compound 10 µM, first compound 0.316 µM
[34] = second compound 10 µM, first compound 1 µM
[35] = second compound 10 µM, first compound 3.16 µM
[36] = second compound 10 µM, first compound 10 µM
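Also: spheroids exposed to the compounds for one week.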
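For viability, T/C in this document: percent of tumor spheroid viability relative to DMSO vehicle control wells.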

IC50 (second compound 0.0316 µM): < 31.6 nM | IC50 (second compound 0.1 µM): < 31.6 nM | IC50 (second compound 0.316 µM): < 31.6 nM | IC50 (second compound 1 µM): < 31.6 nM | IC50 (second compound 3.16 µM): < 31.6 nM | IC50 (second compound 10 µM): < 31.6 nM
SMILES: CC(=O)O[C@H]1C(=O)[C@@]2(C)[C@H]([C@H](OC(=O)c3ccccc3)[C@]3(O)C[C@H](OC(=O)[C@H](O)[C@@H](NC(=O)c4ccccc4)c4ccccc4)C(C)=C1C3(C)C)[C@]1(OC(C)=O)CO[C@@H]1C[C@@H]2O + Cc1cnc(CNC(=O)c2c(=O)c3ccc(N4CCCN(C)CC4)nc3n3c2sc2ccccc23)cn1
viability, T/C [1]: 11.1% | viability, T/C [2]: 3.65% | viability, T/C [3]: 3.53% | viability, T/C [4]: 4.58% | viability, T/C [5]: 3.52% | viability, T/C [6]: 3.97% | viability, T/C [7]: 7.92% | viability, T/C [8]: 4.41% | viability, T/C [9]: 6.02% | viability, T/C [10]: 4.78% | viability, T/C [11]: 4.71% | viability, T/C [12]: 4.43% | viability, T/C [13]: 7.35% | viability, T/C [14]: 6.45% | viability, T/C [15]: 5.89% | viability, T/C [16]: 7.32% | viability, T/C [17]: 6.29% | viability, T/C [18]: 6.52% | viability, T/C [19]: 7.81% | viability, T/C [20]: 6.34% | viability, T/C [21]: 5.06% | viability, T/C [22]: 7.14% | viability, T/C [23]: 6.19% | viability, T/C [24]: 7.74% | viability, T/C [25]: 12.7% | viability, T/C [26]: 0.54% | viability, T/C [27]: 0.25% | viability, T/C [28]: 0.47% | viability, T/C [29]: 0.25% | viability, T/C [30]: 0.18% | viability, T/C [31]: 0.12% | viability, T/C [32]: 0.14% | viability, T/C [33]: 0.14% | viability, T/C [34]: 0.12% | viability, T/C [35]: 0.15% | viability, T/C [36]: 0.16%

SMILES: C=CCn1c(=O)c2cnc(Nc3ccc(N4CCN(C)CC4)cc3)nc2n1-c1cccc(C(C)(C)O)n1 + Cc1[nH]c2ccc(F)cc2c1-c1nc2c3cccnc3c3ncccc3c2[nH]1
IC50 (second compound 0.0316 µM): 6580 nM | IC50 (second compound 0.1 µM): 6680 nM | IC50 (second compound 0.316 µM): 6260 nM | IC50 (second compound 1 µM): 1460 nM | IC50 (second compound 3.16 µM): < 31.6 nM | IC50 (second compound 10 µM): < 31.6 nM | viability, T/C [1]: 128% | viability, T/C [2]: 96.4% | viability, T/C [3]: 96.5% | viability, T/C [4]: 125% | viability, T/C [5]: 83.7% | viability, T/C [6]: 30.8% | viability, T/C [7]: 108% | viability, T/C [8]: 102% | viability, T/C [9]: 97.2% | viability, T/C [10]: 104% | viability, T/C [11]: 88% | viability, T/C [12]: 29.2% | viability, T/C [13]: 88% | viability, T/C [14]: 98% | viability, T/C [15]: 96.1% | viability, T/C [16]: 95.6% | viability, T/C [17]: 89.2% | viability, T/C [18]: 23% | viability, T/C [19]: 74.3% | viability, T/C [20]: 68.4% | viability, T/C [21]: 61.6% | viability, T/C [22]: 59.1% | viability, T/C [23]: 37.4% | viability, T/C [24]: 8.34% | viability, T/C [25]: 6.03% | viability, T/C [26]: 7.36% | viability, T/C [27]: 2.92% | viability, T/C [28]: 6.25% | viability, T/C [29]: 8.08% | viability, T/C [30]: 1.1% | viability, T/C [31]: 1.82% | viability, T/C [32]: 2.1% | viability, T/C [33]: 2.49% | viability, T/C [34]: 1.79% | viability, T/C [35]: 2.05% | viability, T/C [36]: 1.03%

SMILES: C#Cc1c(F)ccc2cc(O)cc(-c3ncc4c(N5CC6CCC(C5)N6)nc(OCC56CCCN5CC(F)C6)nc4c3F)c12 (stereo unspecified) + Cc1[nH]c2ccc(F)cc2c1-c1nc2c3cccnc3c3ncccc3c2[nH]1
IC50 (second compound 0.0316 µM): 1600 nM | IC50 (second compound 0.1 µM): 1450 nM | IC50 (second compound 0.316 µM): 1450 nM | IC50 (second compound 1 µM): 393 nM | IC50 (second compound 3.16 µM): < 31.6 nM | IC50 (second compound 10 µM): < 31.6 nM | viability, T/C [1]: 109% | viability, T/C [2]: 92.7% | viability, T/C [3]: 94.5% | viability, T/C [4]: 73.4% | viability, T/C [5]: 13.6% | viability, T/C [6]: 18.1% | viability, T/C [7]: 103% | viability, T/C [8]: 90.8% | viability, T/C [9]: 95% | viability, T/C [10]: 67.7% | viability, T/C [11]: 8.04% | viability, T/C [12]: 17.1% | viability, T/C [13]: 88.6% | viability, T/C [14]: 87.4% | viability, T/C [15]: 82.3% | viability, T/C [16]: 67.5% | viability, T/C [17]: 10.2% | viability, T/C [18]: 16.4% | viability, T/C [19]: 52.9% | viability, T/C [20]: 52.9% | viability, T/C [21]: 54.3% | viability, T/C [22]: 35.6% | viability, T/C [23]: 1.25% | viability, T/C [24]: 1.01% | viability, T/C [25]: 2.98% | viability, T/C [26]: 2.55% | viability, T/C [27]: 4.13% | viability, T/C [28]: 1.7% | viability, T/C [29]: 0.26% | viability, T/C [30]: 0.33% | viability, T/C [31]: 1.35% | viability, T/C [32]: 1.38% | viability, T/C [33]: 1.82% | viability, T/C [34]: 1.42% | viability, T/C [35]: 0.24% | viability, T/C [36]: 0.41%
